One assay has as its system CD3-stimulated T cells. The assay is described as follows: CD3 stimulation of T cells: metabolite titration curves, 3[H]-thymidin incorporation. The format is cell-based, human. The following applies: anti-CD3 antibody, 3 days. From the text:
• (a) Allogeneic T-cell response. DCs were infected with recombinant IDO-adeno-GFP (DC-IDO-GFP), IDO-adeno (DC-IDO) or with control adenoviruses (DC-adeno) at a MOI (multiplicity of infection) up to 500 for 2 days. Lymphocytes (PBMCs) were separated from peripheral blood of healthy donors by density gradient centrifugation and typed for HLA antigens. Only HLA-DR-different responder lymphocytes were used for DC-induced stimulation. Native DCs only, lymphocytes only, native DCs + allogeneic lymphocytes, DC-IDO-GFP + allogeneic lymphoytes, DC-IDO + allogeneic lymphoytes, DC-adeno + allogeneic lymphocytes (each time 10^5 DC + 10^5 lymphocytes in 0.2ml medium) were cultured in RPMI 1640 medium (Gibco BRL Life Technologies GmbH, Eggenstein, Germany) with 10% fetal calf serum (FCS) (final tryptophan concentration 5.25 mg/l = 25.69 uM) and Penicillin G/Streptomycin. […] In order to verify whether IDO expression or adenovirus infection harm the DCs, 10^5 cells were infected with IDO-adeno-GFP, IDO-adenovirus, or adenovirus only at a stepwise decreasing MOI (500, 250, 125, ........ 3.9) and cell viability was measured in FACS following double staining with 7-AAD and anti-CD83 antibody-PE. The percentage of dead cells never exceeded 30% for any MOI following IDO-adeno-GFP- or IDO-adeno-infection and 40% following adenovirus(control)-infection. Moreover, these values were not higher than those of native DCs cultured for the same period of time. The experiment was repeated using ethidium bromide or trypan blue staining with virtually the same result. […] Peripheral blood lymphocytes were cultured (10^5 cells/well) in RPMI 1640 (10% FCS) with anti CD3 monoclonal antibody (Ortho Diagnostic Systems Inc., Raritan, NJ) (final dilution 1:200). […] Kynurenine, 3-hydroxykynurenine, anthranilic acid, 3-hydroxyanthranilic acid, and quinolinic acid (Sigma-Aldrich Chemie GmbH, Taufkirchen, Germany)(for all substances purity>98%) were dissolved in RPMI 1640 and added to cell cultures at various concentrations. In an other experiment, to determine whether the metabolites have an additive effect, equal concentrations of the compounds were mixed and added to the cultures. […] Positive controls consisted of CD3-stimulated cells without metabolites and negative controls of unstimulated cells. • (d) Restimulation of suppressed T cells. Lymphocytes (10^5 cells/well) were cultured in RPMI 1640 (10% FCS) with anti-CD3 monoclonal antibody (final dilution 1:200) and kynurenine (dilution series). […] Controls consisted of cells prestimulated with anti-CD3 but not pretreated with kynurenine. In an other restimulation experiment lymphocytes were stimulated with allogeneic DCs as described, in the presence (47-1500µM) or absence of kynurenine. Control cultures contained DCs or lymphocytes only. After 5 days the cells were extensively washed, and restimulated with an identical number of DCs derived from the same donor or from third party donors. […] In order to define the concentration of tryptophan which reduces T- lymphocyte proliferation in our test system, 10^5 lymphocytes were incubated in tryptophan-free RPMI 1640 medium (Gibco BRL Life Technologies) with or without 10% FCS, stimulated with anti-CD3 monoclonal antibody, and various amounts (0-38µM) of tryptophan were added. Unimpaired proliferation was observed down to 0.30µM (medium with FCS) and 1 .20µM (without FCS). Complete inhibition was not obtained at any concentration (positive control 100% proliferation; maximal suppression in medium with FCS: approx. 66% and without FCS: approx. 33%). All cell cultures were done in triplicate.
All tests were carried out in triplicate and results are given as mean +standard deviation. […] Thereafter, the concentration of substance giving 50% proliferation was calculated by regression.

The test system of the next assay is T cells. The assay is described as follows: Detection of cell death: 7-AAD staining of anti-CD3 stimulated lymphocytes, FACScan. The format is cell-based, human. The conditions noted are these: anti-CD3, 3 days; 1501 µM kynurenine, 349µM 3-hydroxykynurenine, 510µM 3-hydroxyanthranilic acid, mixture 64 µM of each compound. How it is done:
Lymphocytes were stimulated in culture with anti-CD3 monoclonal antibody (s. above) in the presence or absence (control) of kynurenine (1501µM), 3-hydroxyanthranilic acid (510µM), 3-hydroxykynurenine (348µM), or metabolite mixture (64µM kynurenine + 64µM 3-hydroxykynurenine + 64µM anthranilic acid + 64µM 3-hydroxyanthranilic acid + […] quinolinic acid). After 3 days the cells were washed and resuspended in PBS (10^6/ml). Thereafter, the cells (100µ1 suspension) were labeled with anti-CD3-FITC antibody (3 µl), stained with 7-AAD (5µl) for 15 min, and the percentage of 7-AAD-positive (dead) T cells was determined in a FACScan. In an other experiment T cells, B cells, NK-cells, or DCs were separated from PBMCs by magnetic beads or generated as described, and cultured (5x10^5 cells/ml) with a mixture of kynurenine metabolites (kynurenine + 3-hydroxykynurenine + anthranilic acid + 3-hydroxyanthranilic acid + quinolinic acid)(8, 16, or 32µM respectively for each compound). In one setting T cells were activated with anti-CD3 antibody. Cell death was measured daily for 5 days by 7-AAD staining and expressed in percentage of dead cells.

SMILES strings stand for the structures.

Take `Nc1ccccc1C(=O)CC(N)C(=O)O` (stereo not drawn) [kynurenine]: the IC50 in the assay on CD3-stimulated T cells (Homo sapiens, T-cell, 72 h, single substance, read-out: I50 of proliferation of CD3-stimulated T cells) was found to be 553 µM. In addition, the “suppression of T cell response (in words)” value with CD3-stimulated T cells is “suppressed proliferation”. Besides, the “dead (7-AAD-positive) T cells (in words)” value with T cells is on record as “virtually all cells died”.

Values taken from EP1369114A1, “Use of tryptophan metabolites as pharmaceutical agents” (Terness, Peter, Priv. Doz. Dr., priority 2002, dated 2003).
